Columns and labels:
[1] = Mouse PK Study; format: in vivo; details: male CD1 mice, 30 mg/kg oral suspension, blood
Procedure: All studies were conducted after review by the GSK Institutional Animal Care and Use Committee and in accordance with the GSK Policy on the Care, Welfare and Treatment of Laboratory Animals. The oral suspension pharmacokinetic study was carried out on a single study day; a total of three male CD1 mice were used.
The compounds used in this study were the compound of Example 1, herein, and Compound A (the compound of Example 1 of WO 2018/109646).
The oral suspension dose was prepared in 1% aqueous methylcellulose. Each animal received a nominal dose of 30 mg/kg (10 mL/kg dose volume) as an oral gavage. Blood samples (approximately 0.025 mL each) were collected from a tail vein. Blood samples were collected prior to dosing and at target times of 15, 30, 60, 120, 240, 480, and 1440 minutes following oral gavage. A 25 μL aliquot was added to a non-heparinized tube containing 25 μL water and quick frozen on solid carbon dioxide and stored at approximately −80° C. until analyzed by liquid chromatography/tandem mass spectroscopy (LC/MS/MS) for test compound concentration.
Pharmacokinetic parameters for all in vivo PK studies were calculated using non-compartmental methods with Phoenix WinNonlin version 6.1.0 or 8.1.0. All parameters were calculated using actual blood sampling times and actual dosages for each animal. […]

[2] = system: murine TAC model; assay: Mouse Transverse Aortic Constriction (TAC) Left Ventricular Pressure Overload Model; format: in vivo, C57BLK/6J mice; details: 10-week mouse TAC, Example 1 at 1, 3, 10 mg/kg/d, Example B at 100 mg/kg/d
Text: Male C57BLK/6J mice (10-12 weeks old) were individually housed and acclimated to a standard powdered rodent diet for 1-3 days. Water was offered ad libitum throughout the study. Mice were initially anesthetized in a chamber using an 3% isoflurane with oxygen (1.0 L/min), and then maintained at 1.5% via nose cone (without intubation). A small incision (˜5 mm) was made just left of midline and just above the rib cage at the level of the suprasternal notch. The muscle tissue was retracted to expose the area above the pleural cavity. The lobes of the thymus were separated and retracted to expose the aortic arch. Fine surgical forceps with blunted tips were used to expose a region above and below the aorta. A micro blunt hook tied with 7-0 silk surgical suture was looped under the aorta and the suture pulled through. The suture was tied-off against a small piece of blunted 27 G needle and the needle was then removed creating the aortic constriction (a 60-70% constriction of the lumen). The incision was closed using 6-0 silk suture for the muscle layer, then the skin with Medbond. The sham procedure was identical without ligation of aorta. Depending on the individual study designs, drug administration began either on the day of surgery, or 1-2 weeks after surgery (detailed in figure legends) and continued until the end of study. Compounds were administered in the mouse chow unless otherwise noted in FIG. 12 legends. TAC study duration was either 6 weeks or 10 weeks in duration. All TAC study endpoints were collected at the end of study. Following heart dissections, samples were either snap frozen in liquid nitrogen and stored at −80° C. or placed in 10% neutral buffered formalin until analysis.
Echocardiography: For mouse TAC studies, echocardiography was performed on a Vevo 2100 high frequency imaging system. Animals were anesthetized with 2-3% isoflurane and sedation maintained with 1% isoflurane with animals on a heating pad. B-mode imaging of three cardiac cycles was used to assess ejection fraction (EF), end diastolic volume (EDV), end systolic volume (ESV), LV mass, and heart rate. ECG was used to measure heart rate during the echocardiography procedure.
NADPH dehydrogenase [quinone]-1 (NQO1) activity: Left ventricular (LV) tissue NQO1 activity was determined using an NQO1 assay kit per manufacturer's protocol (Abcam, Cambridge MA)
The KEAP1 blockers/Nrf2 activators, (R)-3-(1,4-dimethyl-1H-benzo[d][1,2,3]triazol-5-yl)-3-(3-(((R)-2-ethyl-7-hydroxy-2,3-dihydropyrido[2,3-f][1,4]oxazepin-4(5H)-yl)methyl)-4-methylphenyl)propanoic acid, hydrochloride, or a tautomer thereof (Example 1) (in dose-response) and (S)-3-(1,4-dimethyl-1H-benzo[d][1,2,3]triazol-5-yl)-3-(3-(((R)-2-ethyl-2,3-dihydropyrido[3,4-f][1,4]oxazepin-4(5H)-yl)methyl)-4-methylphenyl)-2,2-dimethylpropanoic acid (Example B) were evaluated in a 10-week mouse TAC model of severe hemodynamic stress.
FIG. 12 depicts the effect of the KEAP1-kelch domain blockers/Nrf2 activators (R)-3-(1,4-dimethyl-1H-benzo[d][1,2,3]triazol-5-yl)-3-(3-(((R)-2-ethyl-7-hydroxy-2,3-dihydropyrido[2,3-f][1,4]oxazepin-4(5H)-yl)methyl)-4-methylphenyl)propanoic acid, hydrochloride, or a tautomer thereof (Compound of Example 1) and (S)-3-(1,4-dimethyl-1H-benzo[d][1,2,3]triazol-5-yl)-3-(3-(((R)-2-ethyl-2,3-dihydropyrido[3,4-f][1,4]oxazepin-4(5H)-yl)methyl)-4-methylphenyl)-2,2-dimethylpropanoic acid (Compound B) on cardiac function, remodeling, and NQO1 enzyme activity in the murine 10-week TAC model. All compounds were dosed in chow beginning 2-weeks after TAC. […]

Mouse Pharmacokinetics Clearance/Bioavailability [1] [mL/min/kg]	SMILES	cardiac function as assessed by ejection fraction ([2]; daily in chow for eight weeks from 2 weeks after TAC)	NAD(P)H quinone oxidoreductase 1 (NQO1) in the LV ([2]; daily in chow for eight weeks)	cardiac hypertrophy (left ventricular mass) ([2]; daily in chow for eight weeks)	unloading the heart (blood pressure) or heart rate ([2]; daily in chow for eight weeks)
31	CC[C@@H]1CN(Cc2cc([C@@H](CC(=O)O)c3ccc4c(nnn4C)c3C)ccc2C)Cc2ncccc2O1 [Compound A, reference compound]	–	–	–	–
15.6	CC[C@@H]1CN(Cc2cc([C@@H](CC(=O)O)c3ccc4c(nnn4C)c3C)ccc2C)Cc2nc(O)ccc2O1 [Example 1, (R)-3-(1,4-dimethyl-1H-benzo[d][1,2,3]triazol-5-yl)-3-(3-(((R)-2-ethyl-7-hydroxy-2,3-dihydropyrido[2,3-f][1,4]oxazepin-4(5H)-yl)methyl)-4-methylphenyl)propanoic acid]	full normalization of cardiac function	significant dose-related elevations	did not influence cardiac hypertrophy	nor did the ejection fraction change occur by unloading the heart (i.e., lowering blood pressure) or increasing the heart rate

— patent US11945826B2, “Hydroxypyridoxazepines as NRF2 activators” (GLAXOSMITHKLINE INTELLECTUAL PROPERTY DEVELOPMENT LIMITED, priority 2019, dated 2024)
